# Columns and labels:
# Assay in all cases: KINOMEscan competition binding
# Details in all cases: compound 10.0 µM
# MUSK (human) = MUSK (human) (UniProt O15146)
# TLK1 (human) = TLK1 (human) (UniProt Q9UKI8)
# MAP3K1 (human) = MAP3K1 (human) (UniProt Q13233)
# SIK2 (human) = SIK2 (human) (UniProt Q9H0K1)
# INSR (human) = INSR (human) (UniProt P06213)
# PRKCD (human) = PRKCD (human) (UniProt Q05655)
# EPHA3 (human) = EPHA3 (human) (UniProt P29320)
# CDK19 (human) = CDK19 (human) (UniProt Q9BWU1)
# MAST1 (human) = MAST1 (human) (UniProt Q9Y2H9)
# TXK (human) = TXK (human) (UniProt P42681)
# CDC2L2 (human) = CDC2L2 (human) (UniProt Q9UQ88)
# [1] = test system: EGFR (human), P00533 [T790M]
# [2] = test system: EGFR (human), P00533 [747-751 del / S ins]
# LTK (human) = LTK (human) (UniProt P29376)
# LIMK2 (human) = LIMK2 (human) (UniProt P53671)
# LATS1 (human) = LATS1 (human) (UniProt O95835)
# RPS6KA2 KD2 (human) = RPS6KA2 KD2 (human) (UniProt Q15349)
# MAP3K6 (human) = MAP3K6 (human) (UniProt O95382)
# TNK1 (human) = TNK1 (human) (UniProt Q13470)
# [3] = test system: FLT3 (human), P36888 [R834Q]
# RPS6KA5 KD1 (human) = RPS6KA5 KD1 (human) (UniProt O75582)
# CDK15 (human) = CDK15 (human) (UniProt Q96Q40)
# CAMK2D (human) = CAMK2D (human) (UniProt Q13557)
# SRMS (human) = SRMS (human) (UniProt Q9H3Y6)
# [4] = target: JAK3 JH1 catalytic (human) (UniProt P52333)
# PRKCE (human) = PRKCE (human) (UniProt Q02156)
# MAP2K6 (human) = MAP2K6 (human) (UniProt P52564)
# INSRR (human) = INSRR (human) (UniProt P14616)
# FLT1 (human) = FLT1 (human) (UniProt P17948)
# ERBB2 (human) = ERBB2 (human) (UniProt P04626)
# PKMYT1 (human) = PKMYT1 (human) (UniProt Q99640)
# DAPK1 (human) = DAPK1 (human) (UniProt P53355)
# CSK (human) = CSK (human) (UniProt P41240)
# CSNK2A1 (human) = CSNK2A1 (human) (UniProt P68400)
# Chain of PRKCE (human) (Q02156 whole entry, looked up): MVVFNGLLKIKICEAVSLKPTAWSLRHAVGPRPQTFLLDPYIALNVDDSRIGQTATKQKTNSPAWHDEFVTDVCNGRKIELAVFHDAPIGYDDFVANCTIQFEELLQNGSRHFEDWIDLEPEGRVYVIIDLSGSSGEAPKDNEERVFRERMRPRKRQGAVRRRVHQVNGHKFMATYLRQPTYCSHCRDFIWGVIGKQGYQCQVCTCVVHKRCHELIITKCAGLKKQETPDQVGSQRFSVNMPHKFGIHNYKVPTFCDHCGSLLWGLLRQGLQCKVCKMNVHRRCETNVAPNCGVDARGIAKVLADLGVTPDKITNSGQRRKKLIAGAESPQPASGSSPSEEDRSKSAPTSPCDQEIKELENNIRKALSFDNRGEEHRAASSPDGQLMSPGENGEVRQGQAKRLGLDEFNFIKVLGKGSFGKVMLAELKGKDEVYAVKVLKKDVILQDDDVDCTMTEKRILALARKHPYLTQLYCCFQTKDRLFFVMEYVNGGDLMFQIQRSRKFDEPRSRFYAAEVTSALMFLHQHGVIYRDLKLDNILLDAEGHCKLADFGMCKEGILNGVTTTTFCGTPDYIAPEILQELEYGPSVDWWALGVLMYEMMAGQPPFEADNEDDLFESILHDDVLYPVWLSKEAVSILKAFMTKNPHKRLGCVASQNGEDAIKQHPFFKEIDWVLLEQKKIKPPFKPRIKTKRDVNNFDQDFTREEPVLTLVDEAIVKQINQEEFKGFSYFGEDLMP
# Chain of CSK (human) (P41240 whole entry, looked up): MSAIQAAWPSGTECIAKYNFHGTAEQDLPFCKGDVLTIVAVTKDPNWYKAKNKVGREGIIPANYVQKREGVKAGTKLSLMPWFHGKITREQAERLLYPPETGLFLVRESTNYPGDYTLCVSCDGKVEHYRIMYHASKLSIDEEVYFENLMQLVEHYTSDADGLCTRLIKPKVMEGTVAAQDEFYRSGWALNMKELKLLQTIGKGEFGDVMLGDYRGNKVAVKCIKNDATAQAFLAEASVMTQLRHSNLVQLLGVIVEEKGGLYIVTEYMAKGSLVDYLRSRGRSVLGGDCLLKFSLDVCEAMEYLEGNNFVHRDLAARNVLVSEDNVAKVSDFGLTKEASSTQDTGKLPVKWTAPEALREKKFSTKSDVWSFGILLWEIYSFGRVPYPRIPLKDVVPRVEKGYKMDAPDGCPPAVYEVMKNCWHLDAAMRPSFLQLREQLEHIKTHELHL
# Chain of CDC2L2 (human) (Q9UQ88 whole entry, looked up): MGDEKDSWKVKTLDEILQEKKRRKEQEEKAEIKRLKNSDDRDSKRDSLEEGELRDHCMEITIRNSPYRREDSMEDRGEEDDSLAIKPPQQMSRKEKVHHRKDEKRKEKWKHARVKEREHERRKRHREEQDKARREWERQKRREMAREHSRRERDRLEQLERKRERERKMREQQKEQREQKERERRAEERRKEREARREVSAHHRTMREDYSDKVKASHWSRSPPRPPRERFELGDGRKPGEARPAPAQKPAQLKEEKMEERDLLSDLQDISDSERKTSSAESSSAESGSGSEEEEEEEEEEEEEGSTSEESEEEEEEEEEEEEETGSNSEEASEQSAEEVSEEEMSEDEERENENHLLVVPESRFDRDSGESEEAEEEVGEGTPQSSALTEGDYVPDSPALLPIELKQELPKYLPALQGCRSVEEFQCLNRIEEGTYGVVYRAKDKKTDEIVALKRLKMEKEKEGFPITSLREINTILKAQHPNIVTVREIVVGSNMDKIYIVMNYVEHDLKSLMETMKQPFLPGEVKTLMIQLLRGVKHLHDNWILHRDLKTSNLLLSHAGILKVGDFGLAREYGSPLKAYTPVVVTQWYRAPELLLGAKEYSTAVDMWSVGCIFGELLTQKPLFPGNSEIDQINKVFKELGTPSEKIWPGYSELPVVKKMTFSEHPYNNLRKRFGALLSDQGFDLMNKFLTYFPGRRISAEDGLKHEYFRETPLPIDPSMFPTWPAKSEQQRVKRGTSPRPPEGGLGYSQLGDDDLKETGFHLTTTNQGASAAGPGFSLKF
# Chain of JAK3 JH1 catalytic (human) (P52333 whole entry, looked up): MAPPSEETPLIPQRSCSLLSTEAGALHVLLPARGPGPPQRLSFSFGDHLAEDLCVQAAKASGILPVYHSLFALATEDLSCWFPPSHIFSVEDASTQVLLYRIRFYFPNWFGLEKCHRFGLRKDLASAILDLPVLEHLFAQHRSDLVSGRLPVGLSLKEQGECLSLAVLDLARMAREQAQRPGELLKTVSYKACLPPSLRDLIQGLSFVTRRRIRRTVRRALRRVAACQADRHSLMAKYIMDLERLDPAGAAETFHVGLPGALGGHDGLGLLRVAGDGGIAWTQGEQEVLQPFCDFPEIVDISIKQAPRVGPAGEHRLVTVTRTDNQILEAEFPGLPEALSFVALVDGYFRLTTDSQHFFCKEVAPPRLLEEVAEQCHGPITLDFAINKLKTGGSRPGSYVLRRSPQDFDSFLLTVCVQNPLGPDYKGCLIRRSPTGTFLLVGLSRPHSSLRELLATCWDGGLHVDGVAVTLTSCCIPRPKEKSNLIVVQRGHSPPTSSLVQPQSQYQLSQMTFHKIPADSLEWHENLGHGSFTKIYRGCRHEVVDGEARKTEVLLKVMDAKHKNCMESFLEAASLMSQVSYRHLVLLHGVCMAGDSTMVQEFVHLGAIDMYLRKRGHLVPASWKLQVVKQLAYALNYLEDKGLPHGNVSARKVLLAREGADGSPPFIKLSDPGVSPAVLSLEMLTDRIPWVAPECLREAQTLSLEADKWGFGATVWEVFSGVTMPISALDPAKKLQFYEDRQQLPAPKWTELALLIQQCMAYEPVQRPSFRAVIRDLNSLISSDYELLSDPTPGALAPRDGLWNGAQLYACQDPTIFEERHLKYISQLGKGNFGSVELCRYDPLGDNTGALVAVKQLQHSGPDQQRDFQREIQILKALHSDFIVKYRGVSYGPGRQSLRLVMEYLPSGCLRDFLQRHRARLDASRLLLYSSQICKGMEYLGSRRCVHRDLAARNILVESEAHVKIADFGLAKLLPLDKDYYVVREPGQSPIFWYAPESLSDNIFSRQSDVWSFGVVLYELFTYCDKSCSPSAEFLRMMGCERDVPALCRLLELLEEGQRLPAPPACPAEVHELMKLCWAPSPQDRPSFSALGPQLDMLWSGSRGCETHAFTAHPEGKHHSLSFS
# Chain of SIK2 (human) (Q9H0K1 whole entry, looked up): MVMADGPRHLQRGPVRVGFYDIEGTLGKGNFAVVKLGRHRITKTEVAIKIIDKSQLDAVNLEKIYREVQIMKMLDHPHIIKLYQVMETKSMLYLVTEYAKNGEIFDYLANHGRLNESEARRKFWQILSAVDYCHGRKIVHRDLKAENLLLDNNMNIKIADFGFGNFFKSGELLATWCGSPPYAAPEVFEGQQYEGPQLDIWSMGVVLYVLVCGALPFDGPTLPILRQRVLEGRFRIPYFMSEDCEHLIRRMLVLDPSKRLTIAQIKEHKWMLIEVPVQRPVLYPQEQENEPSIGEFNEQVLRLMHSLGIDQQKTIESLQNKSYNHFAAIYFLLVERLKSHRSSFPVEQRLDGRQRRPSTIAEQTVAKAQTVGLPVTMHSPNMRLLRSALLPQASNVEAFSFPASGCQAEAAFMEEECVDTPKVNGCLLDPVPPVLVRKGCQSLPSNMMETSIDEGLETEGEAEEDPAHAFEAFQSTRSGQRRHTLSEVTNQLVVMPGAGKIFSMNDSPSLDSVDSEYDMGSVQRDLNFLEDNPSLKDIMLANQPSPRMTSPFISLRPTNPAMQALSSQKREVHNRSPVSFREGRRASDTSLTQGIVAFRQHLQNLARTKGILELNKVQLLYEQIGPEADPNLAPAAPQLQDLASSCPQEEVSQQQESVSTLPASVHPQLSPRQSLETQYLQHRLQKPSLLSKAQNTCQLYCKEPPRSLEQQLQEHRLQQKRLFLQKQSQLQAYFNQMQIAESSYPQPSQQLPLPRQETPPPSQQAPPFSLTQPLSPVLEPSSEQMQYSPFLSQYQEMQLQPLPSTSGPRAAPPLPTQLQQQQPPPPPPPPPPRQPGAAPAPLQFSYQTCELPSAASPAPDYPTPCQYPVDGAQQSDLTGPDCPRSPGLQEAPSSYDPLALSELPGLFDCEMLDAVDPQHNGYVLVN
# Chain of RPS6KA2 KD2 (human) (Q15349 whole entry, looked up): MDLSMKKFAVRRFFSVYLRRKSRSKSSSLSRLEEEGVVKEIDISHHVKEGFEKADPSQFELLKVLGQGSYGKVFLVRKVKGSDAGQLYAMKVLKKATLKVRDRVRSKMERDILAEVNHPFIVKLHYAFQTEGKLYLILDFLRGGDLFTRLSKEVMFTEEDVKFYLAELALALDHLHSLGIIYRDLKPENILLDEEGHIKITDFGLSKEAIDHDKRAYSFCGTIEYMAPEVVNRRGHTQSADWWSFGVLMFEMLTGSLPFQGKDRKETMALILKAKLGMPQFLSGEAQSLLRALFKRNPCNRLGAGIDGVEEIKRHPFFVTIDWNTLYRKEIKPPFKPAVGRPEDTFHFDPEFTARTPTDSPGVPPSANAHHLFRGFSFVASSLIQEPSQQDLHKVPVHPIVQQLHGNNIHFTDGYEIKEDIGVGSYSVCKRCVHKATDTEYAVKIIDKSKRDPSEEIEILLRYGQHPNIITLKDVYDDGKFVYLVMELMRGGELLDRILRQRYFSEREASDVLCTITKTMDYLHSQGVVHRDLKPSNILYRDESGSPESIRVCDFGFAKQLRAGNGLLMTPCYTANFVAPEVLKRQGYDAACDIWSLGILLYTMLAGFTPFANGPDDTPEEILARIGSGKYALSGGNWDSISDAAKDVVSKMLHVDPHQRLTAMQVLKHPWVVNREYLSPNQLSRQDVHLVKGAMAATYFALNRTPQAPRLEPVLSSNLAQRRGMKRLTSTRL
structure (smiles),measurement,setting,value
O=c1cc(N2CCOCC2)oc2c(-c3cccc4c3sc3ccccc34)cccc12,"kinase still bound, per cent of control",MUSK (human),100%
same,"kinase still bound, per cent of control",TLK1 (human),71%
same,"kinase still bound, per cent of control",MAP3K1 (human),100%
same,"kinase still bound, per cent of control",SIK2 (human),75%
same,"kinase still bound, per cent of control",INSR (human),66%
same,"kinase still bound, per cent of control",PRKCD (human),80%
same,"kinase still bound, per cent of control",EPHA3 (human),91%
same,"kinase still bound, per cent of control",CDK19 (human),100%
same,"kinase still bound, per cent of control",MAST1 (human),100%
same,"kinase still bound, per cent of control",TXK (human),91%
same,"kinase still bound, per cent of control",CDC2L2 (human),100%
same,"kinase still bound, per cent of control",[1],100%
same,"kinase still bound, per cent of control",[2],100%
same,"kinase still bound, per cent of control",LTK (human),93%
same,"kinase still bound, per cent of control",LIMK2 (human),100%
same,"kinase still bound, per cent of control",LATS1 (human),100%
same,"kinase still bound, per cent of control",RPS6KA2 KD2 (human),83%
same,"kinase still bound, per cent of control",MAP3K6 (human),100%
same,"kinase still bound, per cent of control",TNK1 (human),100%
same,"kinase still bound, per cent of control",[3],100%
same,"kinase still bound, per cent of control",RPS6KA5 KD1 (human),100%
same,"kinase still bound, per cent of control",CDK15 (human),85%
same,"kinase still bound, per cent of control",CAMK2D (human),80%
same,"kinase still bound, per cent of control",SRMS (human),62%
same,"kinase still bound, per cent of control",[4],81%
same,"kinase still bound, per cent of control",PRKCE (human),100%
same,"kinase still bound, per cent of control",MAP2K6 (human),73%
same,"kinase still bound, per cent of control",INSRR (human),100%
same,"kinase still bound, per cent of control",FLT1 (human),97%
same,"kinase still bound, per cent of control",ERBB2 (human),100%
same,"kinase still bound, per cent of control",PKMYT1 (human),92%
same,"kinase still bound, per cent of control",DAPK1 (human),72%
same,"kinase still bound, per cent of control",CSK (human),100%
same,"kinase still bound, per cent of control",CSNK2A1 (human),74%
CN(C)C/C=C/C(=O)Nc1ccc(C(=O)Nc2cccc(Nc3nccc(-c4cccnc4)n3)c2)cc1,"kinase still bound, per cent of control",MUSK (human),61%
same,"kinase still bound, per cent of control",TLK1 (human),92%
same,"kinase still bound, per cent of control",MAP3K1 (human),100%
same,"kinase still bound, per cent of control",SIK2 (human),90%
same,"kinase still bound, per cent of control",INSR (human),74%
same,"kinase still bound, per cent of control",PRKCD (human),100%
same,"kinase still bound, per cent of control",EPHA3 (human),73%
same,"kinase still bound, per cent of control",CDK19 (human),100%
same,"kinase still bound, per cent of control",MAST1 (human),100%
same,"kinase still bound, per cent of control",TXK (human),67%
same,"kinase still bound, per cent of control",CDC2L2 (human),100%
same,"kinase still bound, per cent of control",[1],65%
same,"kinase still bound, per cent of control",[2],87%
same,"kinase still bound, per cent of control",LTK (human),100%
same,"kinase still bound, per cent of control",LIMK2 (human),92%
same,"kinase still bound, per cent of control",LATS1 (human),100%
same,"kinase still bound, per cent of control",RPS6KA2 KD2 (human),100%
same,"kinase still bound, per cent of control",MAP3K6 (human),86%
same,"kinase still bound, per cent of control",TNK1 (human),20%
same,"kinase still bound, per cent of control",[3],83%
same,"kinase still bound, per cent of control",RPS6KA5 KD1 (human),100%
same,"kinase still bound, per cent of control",CDK15 (human),100%
same,"kinase still bound, per cent of control",CAMK2D (human),67%
same,"kinase still bound, per cent of control",SRMS (human),85%
same,"kinase still bound, per cent of control",[4],10%
same,"kinase still bound, per cent of control",PRKCE (human),75%
same,"kinase still bound, per cent of control",MAP2K6 (human),47%
same,"kinase still bound, per cent of control",INSRR (human),100%
same,"kinase still bound, per cent of control",FLT1 (human),46%
same,"kinase still bound, per cent of control",ERBB2 (human),97%
same,"kinase still bound, per cent of control",PKMYT1 (human),100%
same,"kinase still bound, per cent of control",DAPK1 (human),58%
same,"kinase still bound, per cent of control",CSK (human),97%
same,"kinase still bound, per cent of control",CSNK2A1 (human),12%
COc1cc(C(=O)N2CCC(N3CCN(C)CC3)CC2)ccc1Nc1ncc2c(n1)N(C)c1ccccc1C(=O)N2C,"kinase still bound, per cent of control",MUSK (human),99%
same,"kinase still bound, per cent of control",TLK1 (human),100%
same,"kinase still bound, per cent of control",MAP3K1 (human),95%
same,"kinase still bound, per cent of control",SIK2 (human),98%
same,"kinase still bound, per cent of control",INSR (human),84%
same,"kinase still bound, per cent of control",PRKCD (human),75%
same,"kinase still bound, per cent of control",EPHA3 (human),100%
same,"kinase still bound, per cent of control",CDK19 (human),100%
same,"kinase still bound, per cent of control",MAST1 (human),100%
same,"kinase still bound, per cent of control",TXK (human),91%
same,"kinase still bound, per cent of control",CDC2L2 (human),82%
same,"kinase still bound, per cent of control",[1],88%
same,"kinase still bound, per cent of control",[2],100%
same,"kinase still bound, per cent of control",LTK (human),32%
same,"kinase still bound, per cent of control",LIMK2 (human),100%
same,"kinase still bound, per cent of control",LATS1 (human),100%
same,"kinase still bound, per cent of control",RPS6KA2 KD2 (human),7.5%
same,"kinase still bound, per cent of control",MAP3K6 (human),100%
same,"kinase still bound, per cent of control",TNK1 (human),2.8%
same,"kinase still bound, per cent of control",[3],100%
same,"kinase still bound, per cent of control",RPS6KA5 KD1 (human),96%
same,"kinase still bound, per cent of control",CDK15 (human),100%
same,"kinase still bound, per cent of control",CAMK2D (human),28%
same,"kinase still bound, per cent of control",SRMS (human),77%
same,"kinase still bound, per cent of control",[4],100%
same,"kinase still bound, per cent of control",PRKCE (human),100%
same,"kinase still bound, per cent of control",MAP2K6 (human),83%
same,"kinase still bound, per cent of control",INSRR (human),97%
same,"kinase still bound, per cent of control",FLT1 (human),100%
same,"kinase still bound, per cent of control",ERBB2 (human),100%
same,"kinase still bound, per cent of control",PKMYT1 (human),80%
same,"kinase still bound, per cent of control",DAPK1 (human),73%
same,"kinase still bound, per cent of control",CSK (human),90%
same,"kinase still bound, per cent of control",CSNK2A1 (human),100%

# Source: the kinase profiling compilation of Christmann-Franck et al. (2016)
